How the values were obtained:
[1] = Cmax in Sprague-Dawley rat at 3 ml/kg,po measured upto 24 hrs by UPLC-MS/MS analysis; assay type: ADME; parameters: dose 3 ml/kg, time < 24 hrs, route po; conditions: in vivo, 24 h
[2] = molecular target: Voltage-gated inwardly rectifying potassium channel KCNH2 (Homo sapiens, UniProt Q12809); assay: Inhibition of human ERG by patch-clamp assay; assay type: toxicity
[3] = Ratio of AUC of Atazanavir in Sprague-Dawley rat at 1 ml/kg,iv measured upto 24 hrs by UPLC-MS/MS analysis; assay type: ADME; conditions: in vivo
[4] = Fold ratio of total AUC of Atazanavir in Sprague-Dawley rat at 25 ml/kg,po measured upto 24 hrs by UPLC-MS/MS analysis; assay type: ADME; conditions: in vivo
[5] = Cmax in Sprague-Dawley rat at 25 ml/kg,po measured upto 24 hrs by UPLC-MS/MS analysis; assay type: ADME; parameters: time < 24 hrs, dose 25 ml/kg, route po; conditions: in vivo
[6] = Ratio of AUC of Atazanavir in Sprague-Dawley rat at 25 ml/kg,po measured upto 24 hrs by UPLC-MS/MS analysis; assay type: ADME; conditions: in vivo
[7] = Relative Cmax ratio of Atazanavir in Sprague-Dawley rat at 3 ml/kg,po measured upto 24 hrs by UPLC-MS/MS analysis; assay type: ADME; conditions: in vivo
[8] = Ratio of Cmax/Cmin of Atazanavir in Sprague-Dawley rat at 25 ml/kg,po measured after 24 hrs by UPLC-MS/MS analysis; assay type: ADME; conditions: in vivo
[9] = Tmax in Sprague-Dawley rat at 3 ml/kg,po measured upto 24 hrs by UPLC-MS/MS analysis; assay type: ADME; conditions: in vivo, po, 24 h
[10] = Clearance in Sprague-Dawley rat at 1 ml/kg,iv measured upto 24 hrs by UPLC-MS/MS analysis; assay type: ADME; conditions: in vivo
[11] = Relative AUC ratio of Atazanavir in Sprague-Dawley rat at 3 ml/kg,po measured upto 24 hrs by UPLC-MS/MS analysis; assay type: ADME; conditions: in vivo
[12] = Relative AUC ratio of Atazanavir in Sprague-Dawley rat at 1 ml/kg,iv measured upto 24 hrs by UPLC-MS/MS analysis; assay type: ADME; conditions: in vivo
[13] = Cmax in Sprague-Dawley rat at 1 ml/kg,iv measured upto 24 hrs by UPLC-MS/MS analysis; assay type: ADME; parameters: dose 1 ml/kg, time < 24 hrs, route iv; conditions: in vivo
[14] = Ratio of AUC of Atazanavir in Sprague-Dawley rat at 3 ml/kg,po measured upto 24 hrs by UPLC-MS/MS analysis; assay type: ADME; conditions: in vivo
[15] = Relative Cmax ratio of Atazanavir in Sprague-Dawley rat at 1 ml/kg,iv measured upto 24 hrs by UPLC-MS/MS analysis; assay type: ADME; conditions: in vivo
[16] = Fold ratio of total AUC of Atazanavir in Sprague-Dawley rat at 1 ml/kg,iv measured upto 24 hrs by UPLC-MS/MS analysis; assay type: ADME; conditions: in vivo
[17] = Half life in Sprague-Dawley rat at 1 ml/kg,iv measured upto 24 hrs by UPLC-MS/MS analysis; assay type: ADME; conditions: in vivo
[18] = Volume of distribution at steady state in Sprague-Dawley rat at 1 ml/kg,iv measured upto 24 hrs by UPLC-MS/MS analysis; assay type: ADME; conditions: in vivo, read-out: Vdss
[19] = Ratio of Cmax/Cmin of Atazanavir in Sprague-Dawley rat at 1 ml/kg,iv measured after 24 hrs by UPLC-MS/MS analysis; assay type: ADME; conditions: in vivo
[20] = AUClast in Sprague-Dawley rat at 25 ml/kg,po measured upto 24 hrs by UPLC-MS/MS analysis; assay type: ADME; parameters: time < 24 hrs, dose 25 ml/kg, route po; conditions: in vivo
[21] = molecular target: T1, UDP-glucuronosyltransferase 1A1 (Homo sapiens, UniProt P22309); assay: Inhibition of UGT1A1 in human liver microsomes using beta-estradiol as substrate incubated for 40 mins by LC-MS/MS analysis; parameters: species or system Microsome
T1 sequence (P22309 whole entry): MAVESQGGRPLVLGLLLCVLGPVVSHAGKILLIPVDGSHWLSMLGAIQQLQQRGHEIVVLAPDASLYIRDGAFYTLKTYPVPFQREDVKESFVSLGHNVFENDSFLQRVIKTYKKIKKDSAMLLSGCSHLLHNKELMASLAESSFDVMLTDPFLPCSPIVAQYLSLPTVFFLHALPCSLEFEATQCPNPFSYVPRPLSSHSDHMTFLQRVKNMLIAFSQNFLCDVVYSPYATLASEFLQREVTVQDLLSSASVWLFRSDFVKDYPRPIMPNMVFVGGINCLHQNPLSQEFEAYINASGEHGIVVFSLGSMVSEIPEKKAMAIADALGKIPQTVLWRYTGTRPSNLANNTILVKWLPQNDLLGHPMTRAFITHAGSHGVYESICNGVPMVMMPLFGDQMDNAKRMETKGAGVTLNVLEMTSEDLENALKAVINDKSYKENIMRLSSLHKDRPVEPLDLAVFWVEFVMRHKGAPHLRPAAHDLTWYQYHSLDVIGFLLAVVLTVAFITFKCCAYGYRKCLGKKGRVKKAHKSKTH

[22] = molecular target: T1, UDP-glucuronosyltransferase 1A1; assay: Inhibition of human recombinant UGT1A1 using bilirubin as substrate incubated for 40 mins by LC-MS/MS analysis
[23] = Aqueous stability of the compound in acetate buffer at pH 4 assessed as compound half life measured after 24 hrs by UPLC analysis; assay type: physicochemical; conditions: buffer, pH 4, 24 h, 24 h
[24] = Aqueous stability of the compound in phosphate buffer at pH 6.5 assessed as compound half life measured after 24 hrs by UPLC analysis; assay type: physicochemical; conditions: buffer, pH 6.5, 24 h, 24 h
[25] = Tmax in Sprague-Dawley rat at 25 ml/kg,po measured upto 24 hrs by UPLC-MS/MS analysis; assay type: ADME; conditions: in vivo
[26] = Aqueous solubility of compound at pH 4 by UPLC analysis; assay type: physicochemical; conditions: buffer
[27] = Relative Cmax ratio of Atazanavir in Sprague-Dawley rat at 25 ml/kg,po measured upto 24 hrs by UPLC-MS/MS analysis; assay type: ADME; conditions: in vivo
[28] = AUClast in Sprague-Dawley rat at 3 ml/kg,po measured upto 24 hrs by UPLC-MS/MS analysis; assay type: ADME; parameters: time < 24 hrs, dose 3 ml/kg, route po; conditions: in vivo, 24 h
[29] = AUClast in Sprague-Dawley rat at 1 ml/kg,iv measured upto 24 hrs by UPLC-MS/MS analysis; assay type: ADME; parameters: dose 1 ml/kg, time < 24 hrs, route iv; conditions: in vivo
[30] = Aqueous solubility of compound at pH 1 by UPLC analysis; assay type: physicochemical; conditions: buffer
[31] = Ratio of Cmax/Cmin of Atazanavir in Sprague-Dawley rat at 3 ml/kg,po measured after 24 hrs by UPLC-MS/MS analysis; assay type: ADME; conditions: in vivo
[32] = Fold ratio of total AUC of Atazanavir in Sprague-Dawley rat at 3 ml/kg,po measured upto 24 hrs by UPLC-MS/MS analysis; assay type: ADME; conditions: in vivo
[33] = Relative AUC ratio of Atazanavir in Sprague-Dawley rat at 25 ml/kg,po measured upto 24 hrs by UPLC-MS/MS analysis; assay type: ADME; conditions: in vivo

Chain of Voltage-gated inwardly rectifying potassium channel KCNH2 (Q12809 whole entry): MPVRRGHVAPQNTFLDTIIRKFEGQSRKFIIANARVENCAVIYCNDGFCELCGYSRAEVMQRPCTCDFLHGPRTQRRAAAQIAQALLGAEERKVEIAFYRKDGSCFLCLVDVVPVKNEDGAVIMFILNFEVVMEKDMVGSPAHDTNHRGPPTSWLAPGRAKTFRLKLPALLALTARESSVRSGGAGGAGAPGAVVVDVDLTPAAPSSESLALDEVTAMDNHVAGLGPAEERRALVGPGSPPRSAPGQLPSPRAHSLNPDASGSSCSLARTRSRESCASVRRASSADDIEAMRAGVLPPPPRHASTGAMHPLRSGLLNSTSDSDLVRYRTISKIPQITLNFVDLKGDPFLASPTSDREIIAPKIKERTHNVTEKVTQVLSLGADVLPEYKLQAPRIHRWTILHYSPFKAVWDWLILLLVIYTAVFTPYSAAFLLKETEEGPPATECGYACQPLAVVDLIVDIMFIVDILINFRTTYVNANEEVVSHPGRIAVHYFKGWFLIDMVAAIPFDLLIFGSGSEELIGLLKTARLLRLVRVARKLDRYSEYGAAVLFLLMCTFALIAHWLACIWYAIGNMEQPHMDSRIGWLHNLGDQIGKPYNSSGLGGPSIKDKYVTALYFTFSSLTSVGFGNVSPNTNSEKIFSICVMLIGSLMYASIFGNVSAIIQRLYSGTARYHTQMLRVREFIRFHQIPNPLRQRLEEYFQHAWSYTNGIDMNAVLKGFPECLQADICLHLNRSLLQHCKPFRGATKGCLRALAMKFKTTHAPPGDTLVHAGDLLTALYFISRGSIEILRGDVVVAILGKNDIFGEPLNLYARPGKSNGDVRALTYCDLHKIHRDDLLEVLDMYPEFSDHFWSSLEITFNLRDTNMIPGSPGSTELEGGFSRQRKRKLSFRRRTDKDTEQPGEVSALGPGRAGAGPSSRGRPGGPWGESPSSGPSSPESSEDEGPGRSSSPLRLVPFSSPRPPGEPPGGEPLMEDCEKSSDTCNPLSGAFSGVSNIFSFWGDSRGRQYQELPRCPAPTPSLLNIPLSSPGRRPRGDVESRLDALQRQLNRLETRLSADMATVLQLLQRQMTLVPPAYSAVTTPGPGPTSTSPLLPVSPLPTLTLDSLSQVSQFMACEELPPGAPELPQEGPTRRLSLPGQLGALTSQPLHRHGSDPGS

Cmax [1]: 93 nM
Ratio [3]: 0.08
Ratio [4]: 1.94
Cmax [5]: 123 nM
Ratio [6]: 0.03
Ratio [7]: 8.2
Ratio [8]: 27.8
Tmax [9]: 0.4 h
clearance [10]: 47 mL/min/kg
Ratio [11]: 17.7
Ratio [12]: 7.3
Cmax [13]: 371 nM
Ratio [14]: 0.02
Ratio [15]: 1.01
Ratio [16]: 7.8
half-life [17]: 4 h
Vd [18]: 7.7 L/kg
Ratio [19]: 431.7
AUC(0-t) at 24 h [20]: 1.23 µM·h
IC50 [21]: 2.1 µM
IC50 [22]: 1 µM
t1/2 [23]: 334.3 h
t1/2 [24]: 15.3 h
Tmax [25]: 2.3 h
solubility [26]: > 1900 µg/mL
Ratio [27]: 1
AUClast [28]: 0.12 µM·h
AUC(0-t) at 24 h [29]: 0.356 µM·h
solubility [30]: > 1900 µg/mL
Ratio [31]: 86.9
Ratio [32]: 18
Ratio [33]: 1.88
SMILES: COC(=O)N[C@H](C(=O)N[C@@H](Cc1ccccc1)[C@H](CN(Cc1ccc(-c2ccccn2)cc1)NC(=O)[C@@H](NC(=O)OC)C(C)(C)C)OC(=O)OC(OC(=O)[C@H](N)C(C)C)C(C)C)C(C)(C)C (stereo in doubt; 5j)
IC50 [2]: 8.8 µM

Source: ChEMBL document CHEMBL5137093, “Improving Drug Delivery While Tailoring Prodrug Activation to Modulate Cmax and Cmin by Optimization of (Carbonyl)oxyalkyl Linker-Based Prodrugs of Atazanavir” (J Med Chem, 2022)
